Measured values reported in publication PMC12801976, “Enzyme-Powered CO2 Utilization: A Bifunctional Immobilized Biocatalyst for Intensified CCU of Industrial Feedstocks to High-Value Chemicals” (ACS Sustainable Chemistry & Engineering, 2025).

Molecular target: T1, glycerol dehydrogenase (GlyDH)
T1 construct: His-tagged, produced and purified in house (details only in SI); multimeric zinc metalloenzyme; free enzyme
Assay: NADH formation at […] nm, DHA dose series
Format: biochemical
Conditions: free enzyme; product inhibition; standard assay 100 mM glycerol, 2.5 mM NAD+, 100 mM phosphate pH 7.0, 30 °C

- IC50: 330 µM
Structure (SMILES): O=C(CO)CO [DHA, dihydroxyacetone]
